The values that follow come from patent US4748274A, “4-hydroxy-4-(substituted alkenyl)cyclohexanecarboxylic acids” (Merrell Dow Pharmaceuticals Inc., priority 1986, dated 1988).

Structures are written as SMILES.

Assay [1] concerns the target T1, 3H-LTD4 specific receptor (guinea pig lung membranes) (Cavia porcellus, UniProt Q2NNR5).
T1 construct: from tissue; host or cells: guinea pig lung membranes
T1 sequence (Q2NNR5 1-340): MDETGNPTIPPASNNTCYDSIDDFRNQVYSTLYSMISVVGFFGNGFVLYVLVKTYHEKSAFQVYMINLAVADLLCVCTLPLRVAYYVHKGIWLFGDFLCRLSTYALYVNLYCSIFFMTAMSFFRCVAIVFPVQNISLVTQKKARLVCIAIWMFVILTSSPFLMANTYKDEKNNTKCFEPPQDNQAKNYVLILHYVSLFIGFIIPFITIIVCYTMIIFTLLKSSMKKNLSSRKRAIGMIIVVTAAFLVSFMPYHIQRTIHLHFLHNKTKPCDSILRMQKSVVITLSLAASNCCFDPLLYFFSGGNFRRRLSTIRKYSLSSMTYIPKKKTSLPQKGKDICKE
As to the kind of experiment: 3H-LTD4 specific receptor binding in guinea pig lung membranes. Conditions: 3H-LTD4, 50 mM Tris-HCl pH 7.6, 37° C., 20-40 min; read-out: G.P. LUNG SPECIFIC BINDING IC50. The protocol:
3H-LTD4 - Specific Receptor Binding in Guinea Pig Lung Membranes
Male guinea pigs were sacrificed and the lungs were removed and placed in ice cold 50 mM Tris-HCl buffer, pH 7.4. The lungs were then homogenized with a Polytron homogenizer and the homogenate was centrifuged at 1000 g for 10 minutes at 4° C. The supernatant was then centrifuged at 30,000 g for 15 minutes at 4° C. to obtain the membrane pellet. This pellet was resuspended in 50 mM Tris-HCl to provide the working suspension of lung membranes. Binding assays were then carried out in 50 mM Tris-HCl at pH 7.6 and 37° C. using incubation periods of 20-40 min. Separation of bound ^3 H-LTD4 from free ^3 H-LTD4 were performed by rapid vacuum filtration through Whatman GF/B glass fiber filters using ice cold Tris-HCl buffer and three 4 ml washes. Filtration and washing were completed in less than 8 seconds. The radioactivity on the filters was then measured. Specific binding of ^3 H-LTD4 was defined as the binding of ^3 H-LTD4 in the absence of unlabelled LTD4 minus the binding of ^3 H-LTD4 in the presence of 2×10^-7 M unlabelled LTD4. Specific binding of ^3 H-LTD4 was 60-80% of total binding. […] In these tests increasing concentrations of the agent are used to block the ^3 H-LTD4 specific binding. The concentration that reduces the specific binding of ^3 H-LTD4 by 50% is termed the IC50.

Assay [2] has as its target T2, leukotriene D4 (longitudinal muscle of guinea pig ileum) (Cavia porcellus, UniProt Q2NNR5).
T2 construct: The longitudinal muscle was then carefully dissected from the circular muscle of the ileum; from tissue; host or cells: guinea pig terminal ileum, longitudinal muscle segments
T2 sequence (Q2NNR5 1-340): T1 sequence (Q2NNR5 1-340)
As to the kind of experiment: Antagonism of leukotriene D4 contraction, longitudinal muscle of guinea pig ileum. The class given is cell-based. The settings on record: LTD4 concentration-response, 15 min preincubation, 1 μM indomethacin, 37° C., Arunlakshana and Schild method; for Kb: read-out: G.P. ILEUM pA2 (LTD4) (converted). As for the experimental part: Longitudinal Muscle of Guinea Pig Ileum
Male, Hartley-Duncan, guinea pigs were sacrificed by cervical dislocation. The terminal portion of the ileum was removed, rinsed, and placed in Burn's modified Tyrode's solution. The longitudinal muscle was then carefully dissected from the circular muscle of the ileum. The longitudinal muscle was cut into 1-2 cm. segments which were placed in a tissue bath containing oxygenated Burn's modified Tyrode's solution warmed to 37° C. A tension of 1.0 gram was then placed on each segment of muscle. After equilibration for 1 hour, 1 μM Indomethacin was added to each bath. After 5 minutes, each tissue segment was then exposed to a concentration of 60 nM leukotriene D4. This response was then considered to be the initial maximal contraction that each segment will produce. After washing the tissue several times, over a 1 hour period, 1 μM lndomethacin was again added to each bath. After a 5 minute period the test agent or vehicle was added to the bath. After 15 minutes, a concentration-response curve was generated using cumulatively increasing concentrations of leukotriene D4. The concentration-response was then compared to the initial maximum contraction. A test compound was considered active, if at concentrations up to 100 μM, it produces a significant shift to the right of the concentration-response relationship to leukotriene D4. The antagonist activity was quantitated in terms of a pA2 value calculated according to the method described by Arunlakshana and Schild, (Brit. J. Pharmac. Chemotherap. 14; 48, 1959).

Assay [3] relates to leukotriene D4 (induced bronchoconstriction). The experiment in a line: In vivo leukotriene D4 antagonist activity in anesthetized guinea pigs, modified Konzett-Rossler preparation. Set-up: species or system guinea pig. The settings on record: LTD4 50 or 100 ng/kg i.v. As for the experimental part:
In Vivo Biological Activity
Compounds of the present invention were also tested for in vivo leukotriene D4 antagonist activity in anesthetized guinea pigs using a modified Konzett-Rossler preparation. Specifically, the guinea pigs were anesthetized with sodium pentobarbital and surgically prepared for artificial ventilation by a constant volume respirator. The inflation pressure produced by the respirator was measured for each inflation of the guinea pigs' lungs. Increases in inflation pressure above baseline are indicative of bronchoconstriction. After establishing a baseline inflation pressure, bronchoconstriction was induced by an intravenous challenge with 50 or 100 ng/kg leukotriene D4. This response was considered the initial response. After the inflation pressure returned to baseline, the guinea pig was treated with the desired dosage of test compound or vehicle, given intravenously (i.v.) or intraduodenally (i.d.), and rechallenged with leukotriene D at one minute [following i.v. administration]or 5 and 20 minutes [following i.d. administration]. This response was then compared to the initial response and the % inhibition of the response was determined. The results can be summarized as follows, with the inhibition values given for administration by the i.d. route being the greater of the two results obtained.

Setting [4] is: 1.0 mg/kg i.d., greater of results at 5 and 20 minutes.

What is called IC50 is the concentration at which inhibition is half-maximal. Turning to `CCCCCCCCCCCCC/C=C\C(SCCC(=O)O)[C@]1(O)CC[C@H](C(=O)O)CC1` (relative stereo) [Example 10H, [1α,4β,4(Z)]-4-[1-[(2-CarbOxyethyl)thio]-2-hexadecenyl]-4-hydroxycyclohexanecarboxylic acid], the IC50 in assay [1] came out at 8700 nM. In addition, in assay [2], the Kb was 0.245 nM.

Regarding `CCCCCCCCCCCCC/C=C\C(SCCCC(=O)O)[C@]1(O)CC[C@H](C(=O)O)CC1` (relative stereo) [Example 10J, [1α,4β,4(Z)]-4-[1-[(3-carboxypropyl)thio]-2-hexadecenyl]-4-hydroxycyclohexanecarboxylic acid], the “PERCENT INHIBITION” value amounted to 48% in assay [3] (0.5 mg/kg i.d., greater of results at 5 and 20 minutes); 53% in assay [3] (setting [4]). Further, the half-maximal inhibitory concentration (IC50) in assay [1] was 7100 nM. In assay [2], the Kb was 5.5 nM.

In the case of `CCCCCCCCCCCCCC=CC(SCCC(=O)O)C1(O)CCC(C(=O)O)CC1` (stereo not drawn) [Example 11, [1α,4β,4(E)]-4-[1-[(2-carboxyethyl)thio-2hexadecenyl]-4-hydroxycyclohexanecarboxylic acid], in assay [2], the “G.P. ILEUM pA2 (LTD4)” value turned out to be 7.87.

On to `CCCCCCCCCCCCC/C=C\C(SCCCC(=O)O)[C@]1(O)CC[C@@H](C(=O)O)CC1` (relative stereo) [Example 10I, [1α,4α,4(Z)]-4-[1-[(3-carboxypropyl)thio]-2-hexadecenyl]-4-hydroxycyclohexanecarboxylic acid], for which the “PERCENT INHIBITION” value in assay [3] (0.05 mg/kg i.v., rechallenge at one minute) is 19%.

As to `CCCCCCCCCCCCC/C=C\C(SCCC(=O)NCC(=O)O)[C@]1(O)CC[C@H](C(=O)O)CC1` (relative stereo) [Example 10L, [1α,4β,4(Z)]-4-[1-[[3-[(carboxymethyl)amino]-3oxopropyl]thio]-2-hexadecenyl]-4-hydroxycyclohexanecarboxylic acid], the “PERCENT INHIBITION” value in assay [3] (0.5 mg/kg i.v., rechallenge at one minute) is reported as 74%; in assay [3] (setting [4]) it was 25%. Besides, the IC50 in assay [1] turned out to be 8000 nM. Besides, the Kb in assay [2] was 2.69 nM.

Turning to `CCCCCCCCCCCCC/C=C\[C@@H](SCCC(=O)O)[C@]1(O)CC[C@H](C(=O)O)CC1` [Example 10F], the “PERCENT INHIBITION” value in assay [3] (0.0002 mg/kg i.v., rechallenge at one minute) was determined as 38%; in assay [3] (0.002 mg/kg i.v., rechallenge at one minute), 52%; in assay [3] (0.02 mg/kg i.v., rechallenge at one minute), 94%; in assay [3] (0.1 mg/kg i.d., greater of results at 5 and 20 minutes) it was 74%; in assay [3] (0.2 mg/kg i.d., greater of results at 5 and 20 minutes), 93%. Further, in assay [2], the Kb was 0.38 nM.

`CCCCCCCCCCCCC/C=C\[C@@H](SCC(=O)O)[C@]1(O)CC[C@H](C(=O)O)CC1` [Example 10D, [4(R)-[1α,4β,4(Z)]]-4-[1-[(carboxymethyl)thio]-2-hexadecenyl]-4-hydroxycyclohexanecarboxylic acid]: the Kb in assay [2] is 0.158 nM.
